This assay deals with T1, human PCaR (parathyroid Calcium receptor) (Homo sapiens, UniProt P41180).
T1 construct: expressed in transfected cells; host or cells: CCL39 fibroblasts (stably transfected)
T1 sequence (P41180 20-1078): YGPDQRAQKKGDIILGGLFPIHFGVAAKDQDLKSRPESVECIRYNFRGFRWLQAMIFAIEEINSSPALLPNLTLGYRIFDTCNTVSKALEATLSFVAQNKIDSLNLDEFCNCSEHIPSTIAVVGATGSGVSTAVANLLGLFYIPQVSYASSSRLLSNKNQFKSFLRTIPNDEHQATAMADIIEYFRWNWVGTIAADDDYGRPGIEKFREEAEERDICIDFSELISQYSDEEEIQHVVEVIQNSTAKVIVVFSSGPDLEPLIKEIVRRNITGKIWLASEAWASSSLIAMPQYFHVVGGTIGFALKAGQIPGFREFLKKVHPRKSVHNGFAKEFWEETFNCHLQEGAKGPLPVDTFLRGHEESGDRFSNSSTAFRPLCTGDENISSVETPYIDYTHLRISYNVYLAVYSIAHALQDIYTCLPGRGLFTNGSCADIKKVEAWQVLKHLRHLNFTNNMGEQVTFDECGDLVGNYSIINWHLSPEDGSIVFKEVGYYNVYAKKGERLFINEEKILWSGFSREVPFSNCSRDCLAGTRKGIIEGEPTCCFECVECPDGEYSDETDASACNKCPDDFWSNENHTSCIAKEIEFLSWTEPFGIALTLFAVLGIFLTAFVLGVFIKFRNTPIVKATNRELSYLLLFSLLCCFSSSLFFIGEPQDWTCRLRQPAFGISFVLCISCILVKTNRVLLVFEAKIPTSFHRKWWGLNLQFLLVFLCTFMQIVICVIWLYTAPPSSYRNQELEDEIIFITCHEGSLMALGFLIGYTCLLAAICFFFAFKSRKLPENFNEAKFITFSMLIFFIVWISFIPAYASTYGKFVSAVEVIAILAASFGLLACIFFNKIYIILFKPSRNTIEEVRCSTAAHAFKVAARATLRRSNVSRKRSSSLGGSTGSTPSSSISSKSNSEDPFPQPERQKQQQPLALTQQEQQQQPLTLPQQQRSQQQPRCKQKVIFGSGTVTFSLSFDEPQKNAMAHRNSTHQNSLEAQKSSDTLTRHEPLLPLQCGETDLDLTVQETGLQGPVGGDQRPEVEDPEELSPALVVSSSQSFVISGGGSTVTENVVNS
The assay can be described thus: Intracellular free calcium assay: inhibition of calcium transients stimulated by extracellular calcium (antagonism at PCaR). The format is cell-based. The settings on record: CCL39 fibroblasts stably transfected with human PCaR; Fluo-3 AM; stimulated with calcium (2.5 mM final). How it is done:
A suitable and well validated assay to measure the anabolic effect on bone formation is the assay to detect intracellular free calcium, i.e. the method to determine antagonism at the parathyroid Calcium receptor (PCaR) consists in measuring the inhibition of intracellular calcium transients stimulated by extracellular calcium:
CCL39 fibroblasts stably transfected with human PCaR are seeded at 40'000 cells/well into 96-well Viewplates and incubated for 24 hours. Medium is then removed and replaced with fresh medium containing 2 μM Fluo-3 AM (Molecular Probes, Leiden, The Netherlands), In routine experiments, cells are incubated at 37° C., 5% CO2 for 1 h. Afterwards, plates are washed twice with mHBS and wells are refilled with 100 μl mHBS containing the test compounds. Incubation is continued at room temperature for 15 minutes. To record changes of intracellular free calcium, plates are transferred to fluorescence-imaging plate reader (Molecular Devices, Sunnyvale, Calif., USA). A baseline consisting in 5 measurements of 0.4 seconds each (laser excitation 488 nm) is recorded. Cells are then stimulated with calcium (2.5 mM final), and fluorescence changes recorded over a period of 3 minutes.
The term IC50 denotes the concentration at which inhibition is half-maximal. On to `C#CCOc1ccc2nc(-c3nc4cc(C(=O)CCC)c(C)cc4n3C)nc(-c3ccc(C(C)C)cc3)c2c1` [Example 1, 1-{2-[4-(4-Isopropyl-phenyl)-6-prop-2-ynyloxy-quinazolin-2-yl]-1,6-dimethyl-1H-benzoimidazol-5-yl}-butan-1-one], for which the IC50 is 0.26 nM.
The value for `C#CCOc1ccc2nc(-c3nc4ccc(C#N)cc4[nH]3)nc(-c3ccc(C(C)C)cc3)c2c1` [Example 3, 2-[4-(4-Isopropyl-phenyl)-6-prop-2-ynyloxy-quinazolin-2-yl]-3H-benzoimidazole-5-carbonitrile] was 0.93 nM; that for `C#CCOc1ccc2nc(-c3nc4cc(F)ccc4n3C)nc(-c3ccc(C(C)C)cc3)c2c1` [Example 5, 2-(5-Fluoro-1-methyl-1H-benzoimidazol-2-yl)-4-(4-isopropyl-phenyl)-6-prop-2-ynyloxy-quinazoline] was 1.1 nM; that for `C#CCOc1ccc2nc(-c3nc4cc(OC)ccc4n3C)nc(-c3ccc(C(C)C)cc3)c2c1` [Example 6, 4-(4-Isopropyl-phenyl)-2-(5-methoxy-1-methyl-1H-benzoimidazol-2-yl)-6-prop-2-ynyloxy-quinazoline] was 0.7 nM.
The result for `C#CCOc1ccc2nc(-c3nc4ccccc4n3C)nc(-c3ccc(C(C)C)cc3)c2c1` [Example 8, 4-(4-Isopropyl-phenyl)-2-(1-methyl-1H-benzoimidazol-2-yl)-6-prop-2-ynyloxy-quinazoline] reads 1.5 nM.
On to `C#CCOc1ccc2nc(-c3nc4ccc(C(F)(F)F)cc4[nH]3)nc(-c3ccc(C(C)C)cc3)c2c1` [Example 14, 4-(4-Isopropyl-phenyl)-6-prop-2-ynyloxy-2-(6-trifluoromethyl-1H-benzoimidazol-2-yl)-quinazoline], for which the half-maximal inhibitory concentration (IC50) was 0.95 nM.
The value for `C#CCOc1ccc2nc(-c3nc4ccc(OC)cc4[nH]3)nc(-c3ccc(C(C)C)cc3)c2c1` [Example 15, 4-(4-Isopropyl-phenyl)-2-(6-methoxy-1H-benzoimidazol-2-yl)-6-prop-2-ynyloxy-quinazoline] was 0.96 nM.
The result for `C#CCOc1ccc2nc(-c3nc4ccc(Cl)cc4[nH]3)nc(-c3ccc(C(C)C)cc3)c2c1` [Example 16, 2-(6-Chloro-1H-benzoimidazol-2-yl)-4-(4-isopropyl-phenyl)-6-prop-2-ynyloxy-quinazoline] reads 0.53 nM; that for `C#CCOc1ccc2nc(-c3nc4ccc(C(=O)OCC)cc4[nH]3)nc(-c3ccc(C(C)C)cc3)c2c1` [Example 17, 2-[4-(4-Isopropyl-phenyl)-6-prop-2-ynyloxy-quinazolin-2-yl]-3H-benzoimidazole-5-carboxylic acid ethyl ester], 0.74 nM; that for `C#CCOc1ccc2nc(-c3nc4ccc(C(=O)c5ccccc5)cc4[nH]3)nc(-c3ccc(C(C)C)cc3)c2c1` [Example 18, {2-[4-(4-isopropyl-phenyl)-6-prop-2-ynyloxy-quinazolin-2-yl]-3H-benzoimidazol-5-yl}phenyl-methanone], 0.68 nM.
The result for `C#CCOc1ccc2nc(-c3nc4ccc(Br)cc4[nH]3)nc(-c3ccc(C(C)C)cc3)c2c1` [Example 19, 2-(6-Bromo-1H-benzoimidazol-2-yl)-4-(4-isopropyl-phenyl)-6-prop-2-ynyloxy-quinazoline] reads 0.88 nM; that for `C#CCOc1ccc2nc(-c3nc4ccc(F)cc4[nH]3)nc(-c3ccc(C(C)C)cc3)c2c1` [Example 20, 2-(6-Fluoro-1H-benzoimidazol-2-yl)-4-(4-isopropyl-phenyl)-6-prop-2-ynyloxy-quinazoline], 1.6 nM.
Turning to `C#CCOc1ccc2nc(-c3nc4cc(F)c(Cl)cc4[nH]3)nc(-c3ccc(C(C)C)cc3)c2c1` [Example 21, 2-(6-Chloro-5-fluoro-1H-benzoimidazol-2-yl)-4-(4-isopropyl-phenyl)-6-prop-2-ynyloxy-quinazoline], the IC50 is 1.4 nM.
For the molecule `C#CCOc1ccc2nc(-c3nc4cc(C(F)(F)F)ccc4n3C)nc(-c3ccc(C(C)C)cc3)c2c1` [Example 22, 4-(4-Isopropyl-phenyl)-2-(1-methyl-5-trifluoromethyl-1H-benzoimidazol-2-yl)-6-prop-2-ynyloxy-quinazoline], the IC50 is 0.63 nM.
In the case of `C#CCOc1ccc2nc(-c3nc4cc(C(=O)OCC)ccc4n3C)nc(-c3ccc(C(C)C)cc3)c2c1` [Example 23, 2-[4-(4-Isopropyl-phenyl)-6-prop-2-ynyloxy-quinazolin-2-yl]-1-methyl-1H-benzoimidazole-5-carboxylic acid ethyl ester], the IC50 stood at 0.4 nM.
With `C#CCOc1ccc2nc(-c3nc4cc(C(C)=O)ccc4n3C)nc(-c3ccc(C(C)C)cc3)c2c1` [Example 24, 1-{2-[4-(4-Isopropyl-phenyl)-6-prop-2-ynyloxy-quinazolin-2-yl]-1-methyl-1H-benzoimidazol-5-yl}ethanone], the IC50 was 1 nM.
For `C#CCOc1ccc2nc(-c3nc4cc(F)c(F)cc4[nH]3)nc(-c3ccc(C(C)C)cc3)c2c1` [Example 25, 2-(5,6-Difluoro-1H-benzoimidazol-2-yl)-4-(4-isopropyl-phenyl)-6-prop-2-ynyloxy-quinazoline], the IC50 was 0.44 nM.
The value for `C#CCOc1ccc2nc(-c3nc4cccc(C(C)=O)c4[nH]3)nc(-c3ccc(C(C)C)cc3)c2c1` [Example 26, 1-{2-[4-(4-Isopropyl-phenyl)-6-prop-2-ynyloxy-quinazolin-2-yl]-3H-benzoimidazol-4-yl}-ethanone] was 0.59 nM; that for `C#CCOc1ccc2nc(-c3nc4ccc(C(=O)OCC)cc4n3C)nc(-c3ccc(C(C)C)cc3)c2c1` [Example 36, 2-[4-(4-Isopropyl-phenyl)-6-prop-2-ynyloxy-quinazolin-2-yl]-3-methyl-3H-benzoimidazole-5-carboxylic acid ethyl ester] was 0.65 nM.

Values taken from patent US20090074791A1, “Phenylisoquinoline and Phenylquinazoline Derivatives” (priority 2007, published 2009).
